Measurements from patent US11684607B2, “Secnidazole for use in the treatment of bacterial vaginosis” (priority 2014, dated 2023).
Read-outs that look alike come from different tables or passages of the source.

Test: Effect of a single 2 g dose of SYM-1219 on the plasma pharmacokinetics of EE2 and NET in healthy female subjects
Type: in vivo, human
Conditions: for AUC(0-t) / AUC(0-inf) / Cmax: female, human, plasma
Description: Methods: Fifty-four (54) healthy female subjects, ages 18-65, received EE2/NET alone and in combination, where SYM-1219+EE2/NET were co-administered on Day 1 (Group B1; N=27) or SYM-1219 on Day 1 and EE2/NET on Day 2 (Group B2; N=27). Serial blood samples were drawn to measure plasma concentrations of EE2/NET. […] Safety was evaluated by recording of adverse events, vital signs, ECGs and standard laboratory tests.

[1] = Group B1: Period 2 (EE2/NET followed by SYM-1219 2 grams on Day 1) vs Period 1 (EE2/NET alone)
[2] = Group B1: SYM-1219 2 g and EE2/NET co-administered on Day 1
[3] = Group B2: Period 2 (SYM-1219 2 grams on Day 1, EE2/NET on Day 2) vs Period 1 (EE2/NET alone)

Structure (SMILES): C#C[C@]1(O)CC[C@H]2[C@@H]3CCc4cc(O)ccc4[C@H]3CC[C@@]21C [EE2, ethinyl estradiol]
- EE2 AUC0-t, Geometric LSMean % Ratio (100 * Test/Reference) [1]: 94.26%
- EE2 AUC0-∞, Geometric LSMean % Ratio (100 * Test/Reference) [1]: 105.37%
- EE2 Cmax, Geometric LSMean % Ratio (100 * Test/Reference) [1]: 71.07%
- EE2 Cmax reduction [2]: 29%
- change in EE2 AUC [2]: no change
- EE2 AUC0-t, Geometric LSMean % Ratio (100 * Test/Reference) [3]: 99.04%
- EE2 AUC0-∞, Geometric LSMean % Ratio (100 * Test/Reference) [3]: 93.32%
- EE2 Cmax, Geometric LSMean % Ratio (100 * Test/Reference) [3]: 104.96%
- EE2 PK alteration (Group B2: SYM-1219 2 g on Day 1, EE2/NET on Day 2): not altered
- AUC(0-t) (Group B1 Period 1: EE2/NET alone, read-out: EE2 AUC0-t, Geometric Least Squares (LS) Means): 0.627 ng·h/mL
- AUC(0-t) (Group B1 Period 1: EE2/NET alone, read-out: EE2 AUC0-t, Mean): 0.644 ng·h/mL
- AUC(0-inf) (Group B1 Period 1: EE2/NET alone, read-out: EE2 AUC0-∞, Geometric Least Squares (LS) Means): 0.878 ng·h/mL
- AUC(0-inf) (Group B1 Period 1: EE2/NET alone, read-out: EE2 AUC0-∞, Mean): 0.911 ng·h/mL
- Cmax (Group B1 Period 1: EE2/NET alone, read-out: EE2 Cmax, Geometric Least Squares (LS) Means): 0.0779 ng/mL
- Cmax (Group B1 Period 1: EE2/NET alone, read-out: EE2 Cmax, Mean): 0.0806 ng/mL
- AUC(0-t) (Group B1 Period 2: EE2/NET followed by SYM-1219 2 grams on Day 1, read-out: EE2 AUC0-t, Geometric Least Squares (LS) Means): 0.591 ng·h/mL
- AUC(0-t) (Group B1 Period 2: EE2/NET followed by SYM-1219 2 grams on Day 1, read-out: EE2 AUC0-t, Mean): 0.616 ng·h/mL
- AUC(0-inf) (Group B1 Period 2: EE2/NET followed by SYM-1219 2 grams on Day 1, read-out: EE2 AUC0-∞, Geometric Least Squares (LS) Means): 0.925 ng·h/mL
- AUC(0-inf) (Group B1 Period 2: EE2/NET followed by SYM-1219 2 grams on Day 1, read-out: EE2 AUC0-∞, Mean): 0.954 ng·h/mL
- Cmax (Group B1 Period 2: EE2/NET followed by SYM-1219 2 grams on Day 1, read-out: EE2 Cmax, Geometric Least Squares (LS) Means): 0.0554 ng/mL
- Cmax (Group B1 Period 2: EE2/NET followed by SYM-1219 2 grams on Day 1, read-out: EE2 Cmax, Mean): 0.0599 ng/mL
- AUC(0-t) (Group B2 Period 1: EE2/NET alone, read-out: EE2 AUC0-t, Geometric Least Squares (LS) Means): 0.65 ng·h/mL
- AUC(0-t) (Group B2 Period 1: EE2/NET alone, read-out: EE2 AUC0-t, Mean): 0.68 ng·h/mL
- AUC(0-inf) (Group B2 Period 1: EE2/NET alone, read-out: EE2 AUC0-∞, Geometric Least Squares (LS) Means): 0.945 ng·h/mL
- AUC(0-inf) (Group B2 Period 1: EE2/NET alone, read-out: EE2 AUC0-∞, Mean): 0.995 ng·h/mL
- Cmax (Group B2 Period 1: EE2/NET alone, read-out: EE2 Cmax, Geometric Least Squares (LS) Means): 0.083 ng/mL
- Cmax (Group B2 Period 1: EE2/NET alone, read-out: EE2 Cmax, Mean): 0.0891 ng/mL
- AUC(0-t) (Group B2 Period 2: SYM-1219 2 grams on Day 1, EE2/NET on Day 2, read-out: EE2 AUC0-t, Geometric Least Squares (LS) Means): 0.644 ng·h/mL
- AUC(0-t) (Group B2 Period 2: SYM-1219 2 grams on Day 1, EE2/NET on Day 2, read-out: EE2 AUC0-t, Mean): 0.669 ng·h/mL
- AUC(0-inf) (Group B2 Period 2: SYM-1219 2 grams on Day 1, EE2/NET on Day 2, read-out: EE2 AUC0-∞, Geometric Least Squares (LS) Means): 0.882 ng·h/mL
- AUC(0-inf) (Group B2 Period 2: SYM-1219 2 grams on Day 1, EE2/NET on Day 2, read-out: EE2 AUC0-∞, Mean): 0.937 ng·h/mL
- Cmax (Group B2 Period 2: SYM-1219 2 grams on Day 1, EE2/NET on Day 2, read-out: EE2 Cmax, Geometric Least Squares (LS) Means): 0.0872 ng/mL
- Cmax (Group B2 Period 2: SYM-1219 2 grams on Day 1, EE2/NET on Day 2, read-out: EE2 Cmax, Mean): 0.0926 ng/mL
